Molecular target: T1, human tyrosinase (Homo sapiens, UniProt P14679)
T1 sequence (P14679 19-529): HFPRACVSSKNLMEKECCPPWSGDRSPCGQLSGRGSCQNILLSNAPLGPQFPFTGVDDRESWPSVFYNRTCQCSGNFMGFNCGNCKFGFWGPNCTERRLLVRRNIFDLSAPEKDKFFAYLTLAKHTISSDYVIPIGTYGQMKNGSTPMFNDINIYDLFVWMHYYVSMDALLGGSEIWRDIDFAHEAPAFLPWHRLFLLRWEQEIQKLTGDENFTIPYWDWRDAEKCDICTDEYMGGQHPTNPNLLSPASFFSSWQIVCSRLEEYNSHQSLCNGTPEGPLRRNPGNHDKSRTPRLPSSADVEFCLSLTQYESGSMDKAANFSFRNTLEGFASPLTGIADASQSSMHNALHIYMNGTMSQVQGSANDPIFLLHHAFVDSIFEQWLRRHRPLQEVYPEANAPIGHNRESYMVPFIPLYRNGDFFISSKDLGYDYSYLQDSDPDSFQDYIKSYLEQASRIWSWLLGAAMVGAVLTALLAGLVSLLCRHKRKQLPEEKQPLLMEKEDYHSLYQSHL
Experiment: Enzyme test: conversion of L-DOPA to L-dopaquinone by a human tyrosinase (MBTH, absorption at 490 nm)
Format: biochemical
Conditions: concentration 10 μg/ml, inhibition of the tyrosinase activity; for inhibition at 10 µg/mL: read-out: Inhibition (% of the control)
Protocol: Method Description of the Effectiveness Investigations:
In this literature-known method (Winder, A. J. and Harris, H., New assays for the tyrosine hydroxylase and dopa oxidase activities of tyrosinase. Eur. J. Biochem. (1991), 198, 317-26), the reaction product L-dopaquinone is reacted with MBTH (3-methyl-2-benzothiazoline hydrazone) to give a pink-colored substance, the increase of which is measured over the time by absorption at 490 nm. […] It can be concluded from this that the substances according to the invention are extremely effective pigmentation-inhibiting substances.

Structure (SMILES) | inhibition at 10 µg/mL | Inhibition (% of the control)
CC(C)(C)C(=O)Nc1nc(-c2ccc(O)cc2O)cs1 [N-(4-(2,4-Dihydroxyphenyl)thiazol-2-yl)pivalamide] | 96% | 
CCCC(=O)Nc1nc(-c2ccc(O)cc2O)cs1 [N-(4-(2,4-Dihydroxyphenyl)thiazol-2-yl)butyramide] | 95% | 
CC(C)Nc1nc(-c2ccc(O)cc2O)cs1 [4-(2-Isopropylamino)thiazol-4-yl)benzene-1,3-diol, reference compound] |  | 91%
CC(C)(C)Nc1nc(-c2ccc(O)cc2O)cs1 [4-(2-(tert-Butylamino)thiazol-4-yl)benzene-1,3-diol, reference compound] | 62% | 
OCc1ccc(Nc2nc(-c3ccc(O)cc3O)cs2)cc1 [4-(2-((4-(Hydroxymethyl)phenyl)amino)thiazol-4-yl)benzene-1,3-diol, reference compound] | 93% | 
CCCCCCC(=O)Nc1nc(-c2ccc(O)cc2O)cs1 [N-(4-(2,4-Dihydroxyphenyl)thiazol-2-yl)heptanamide] | 66% | 
CC(C)C(=O)Nc1nc(-c2ccc(O)cc2O)cs1 [N-(4-(2,4-Dihydroxyphenyl)thiazol-2-yl)isobutyramide] | 94% | 
CCCNc1nc(-c2ccc(O)cc2O)cs1 [4-(2-(Propylamino)thiazol-4-yl)benzene-1,3-diol, reference compound] | 88% | 

Second part, led by results:

inhibition at 10 µg/mL | Structure (SMILES) | Inhibition (% of the control)
41% | CCCCCCNc1nc(-c2ccc(O)cc2O)cs1 [4-(2-(Hexylamino)thiazol-4-yl)benzene-1,3-diol, reference compound] | 
92% | O=C(Nc1nc(-c2ccc(O)cc2O)cs1)C1CCCCC1 [N-(4-(2,4-Dihydroxyphenyl)thiazol-2-yl)cyclohexanecarboxamide] | 
88% | O=C(Cc1ccc(CO)cc1)Nc1nc(-c2ccc(O)cc2O)cs1 [N-(4-(2,4-Dihydroxyphenyl)thiazol-2-yl)-2-(4-(hydroxymethyl)phenyl)acetamide] | 
70% | Oc1ccc(-c2csc(NC3CCCCC3)n2)c(O)c1 [4-(2-(Cyclohexylamino)thiazol-4-yl)benzene-1,3-diol, reference compound] | 
94% | O=C(Nc1nc(-c2ccc(O)cc2O)cs1)C1CCC(CO)CC1 (stereo not shown) [N-(4-(2,4-Dihydroxyphenyl)thiazol-2-yl)-4-(hydroxymethyl)cyclohexanecarboxamide] | 
